Reference: patent publication US20220273666A1, “NANOPARTICLE FORMULATION OF BCL-2 INHIBITOR” (Recurium IP Holdings, LLC, priority 2019, published 2022)

Key:
[1] = multiple oral administration under fed conditions; cited from earlier work
[2] = tested on: NCI-H146 cells; assay: NCI-H146 cell proliferation assay (CellTiter-Glo); type: cell-based; settings: Homo sapiens, 72 h treatment, read-out: H146 CTG IC50
Description: Cell proliferation was measured using the CellTiter-Glo® Luminescent Cell Viability Assay. The assay involved the addition of a single reagent (CellTiter-Glo® Reagent) directly to cells cultured in serum-supplemented medium. RS4;11 (ATCC, CRL-1873) cells were cultured according to ATCC recommendations and were seeded at 50,000 cells per well. NCI-H1963 cells (ATCC CRL-5982) were cultured according to ATCC recommendations and seeded at 12,000 cells per well. NCI-H146 (ATCC, HTB-173) cells were cultured according to ATCC recommendations and were seeded at 20,000 cells per well.
Each compound evaluated was prepared as a DMSO stock solution (10 mM). Compounds were tested in duplicate on each plate, with a 10-point serial dilution curve (1:3 dilution). Compound treatment (1.0 μL for RS4;11 and NCI-H1963, 10 μL for NCI-H146) was added from the compound dilution plate to the cell plate. The highest compound concentration was 10 μM (final), with a 0.1% final DMSO concentration. Plates were then incubated at 37° C., 5% CO2. After 48 h of compound treatment for RS4;11 or 72 h for NCI-H-1963 and NCI-H-146, cell plates were equilibrated at rt for approximately 30 mins. An equi-volume amount of CellTiter-G)® Reagent (40 (L for […] and NC-H1963, 100 μL for NCI-H-146)) was added to each well. Plates were mixed for 2 mins on an orbital shaker to induce cell lysis and then incubated at RT for 10 mins to stabilize the luminescent signal. Luminescence was recorded using a Envision or SpectraMax M5e plate reader according to CellTiter-Glo protocol. IC50 of each compound was calculated using GraphPad Prism by nonlinear regression analysis.

[3] = Phase I/II clinical trials, chronic lymphocytic leukemia; cited from earlier work
[4] = biological target: T1, Bcl-XL (Homo sapiens, UniProt Q07817); assay: Bcl-2/Bcl-XL HTRF assay; type: binding; settings: 3 nM Bcl-XL, 40 nM FAM-Bad peptide
T1 construct: host or cells: T7 phage in E. coli host derived from BL21
Description: (§1) Binding to Bcl-2 proteins Bcl-2, and Bcl-XL was also assessed using an HTRF assay. […] This binding can be monitored by HTRF signals between anti-GST-Tb and FAM-peptide using GST-tagged Bcl proteins. Assay conditions: Bcl-2: 4 nM Bcl-2, 100 nM FAM-Bak peptide, Bcl-XL: 3 nM Bcl-XL, 40 nM FAM-Bad peptide in 20 mM K Phosphate, pH 7.5, 50 mM NaCl, 1 mM EDTA, 0.005% Triton X-100 and 1% DMSO (final). […] Compound stock solutions were added to protein solution using Acoustic technology. The compounds were then incubated with protein for 10 min at room temperature. The respective FAM labeled peptide was added and incubated for another 10 min and then anti-GST-Tb was added. After 60 min at rt, the HTRF fluorescence signal ratio was measured. Curve fits were performed in GraphPad Prism 4 with “sigmoidal dose-response (variable slope)”; 4 parameters with Hill Slope.

[5] = biological target: Bcl-2 (Homo sapiens, UniProt P10415); assay: Bcl-2/Bcl-XL HTRF assay
Bcl-2, sequence (P10415 whole entry): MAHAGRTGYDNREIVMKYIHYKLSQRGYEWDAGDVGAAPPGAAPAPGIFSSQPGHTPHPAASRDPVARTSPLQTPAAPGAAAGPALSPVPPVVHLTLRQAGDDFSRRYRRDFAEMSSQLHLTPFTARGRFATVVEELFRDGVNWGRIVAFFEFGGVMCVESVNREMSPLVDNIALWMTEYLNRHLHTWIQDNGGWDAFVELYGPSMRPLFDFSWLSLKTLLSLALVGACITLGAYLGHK
Description: as §1

T1 sequence (Q07817 whole entry): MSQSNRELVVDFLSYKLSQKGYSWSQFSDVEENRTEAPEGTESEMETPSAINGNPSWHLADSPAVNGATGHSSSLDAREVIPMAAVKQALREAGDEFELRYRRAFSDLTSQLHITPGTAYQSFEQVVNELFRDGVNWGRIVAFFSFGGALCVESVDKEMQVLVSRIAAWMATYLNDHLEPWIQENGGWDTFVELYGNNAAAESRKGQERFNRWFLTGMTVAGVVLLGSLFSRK

Row | Compound | IC50 [2] [nM] | IC50 [4] [nM] | IC50 [5] [nM] | also measured
1 | CC1(C)CCC(CN2CCN(c3ccc(C(=O)NS(=O)(=O)c4ccc(NCC5CCOCC5)c([N+](=O)[O-])c4)c(Oc4cnc5[nH]ccc5c4)c3)CC2)=C(c2ccc(Cl)cc2)C1 [ABT-199, venetoclax] |  |  |  | time to maximum plasma concentration [1]: 5 to 8 h
2 | CC1(C)CCC(c2ccc(Cl)cc2)=C(CN2CCN(c3ccc(C(=O)NS(=O)(=O)c4ccc(N[C@H](CCN5CCOCC5)CSc5ccccc5)c(S(=O)(=O)C(F)(F)F)c4)cc3)CC2)C1 [ABT-263, Navitoclax, reference compound] | ≤ 100 |  |  | side effect limiting dosage [3]: occurrence of thrombocytopenia
3 | CN1CCN(CC[C@H](CSc2ccccc2)Nc2ccc(S(=O)(=O)NC(=O)c3ccc(N4CCN(CC5=C(C67CC(C(F)F)(C6)C7)CC(C)(C)CC5)CC4)cc3)cc2S(=O)(=O)C(F)(F)F)CC1 [Example 98, (R)-4-(4-((2-(3-(difluoromethyl)bicyclo[1.1.1]pentan-1-yl)-4,4-dimethylcyclohex-1-en-1-yl)methyl)piperazin-1-yl)-N-((4-((4-(4-methylpiperazin-1-yl)-1-(phenylthio)butan-2-yl)amino)-3-((trifluoromethyl)sulfonyl)phenyl)sulfonyl)benzamide] | 100 to 1000 | < 10 | < 10 | 
4 | COC1CCN(CC[C@H](CSc2ccccc2)Nc2ccc(S(=O)(=O)NC(=O)c3ccc(N4CCN(CC5=C(C67CC(C(F)F)(C6)C7)CC(C)(C)CC5)CC4)cc3)cc2S(=O)(=O)C(F)(F)F)CC1 [Example 99, (R)-4-(4-((2-(3-(difluoromethyl)bicyclo[1.1.1]pentan-1-yl)-4,4-dimethylcyclohex-1-en-1-yl)methyl)piperazin-1-yl)-N-((4-((4-(4-methoxypiperidin-1-yl)-1-(phenylthio)butan-2-yl)amino)-3-((trifluoromethyl)sulfonyl)phenyl)sulfonyl)benzamide] | ≤ 100 | < 10 | < 10 | 
5 | CC1(C)CCC(CN2CCN(c3ccc(C(=O)NS(=O)(=O)c4ccc(N[C@H](CCN5CCCC5)CSc5ccccc5)c(S(=O)(=O)C(F)(F)F)c4)cc3)CC2)=C(C23CC(C(F)F)(C2)C3)C1 [Example 100, (R)-4-(4-((2-(3-(difluoromethyl)bicyclo[1.1.1]pentan-1-yl)-4,4-dimethylcyclohex-1-en-1-yl)methyl)piperazin-1-yl)-N-((4-((1-(phenylthio)-4-(pyrrolidin-1-yl)butan-2-yl)amino)-3-((trifluoromethyl)sulfonyl)phenyl)sulfonyl)benzamide] | ≤ 100 | < 10 | < 10 | 
6 | COC1(C)CCN(CC[C@H](CSc2ccccc2)Nc2ccc(S(=O)(=O)NC(=O)c3ccc(N4CCN(CC5=C(C67CC(C(F)F)(C6)C7)CC(C)(C)CC5)CC4)cc3)cc2S(=O)(=O)C(F)(F)F)CC1 [Example 101] | ≤ 100 |  |  | 
7 | CC1(C)CCC(CN2CCN(c3ccc(C(=O)NS(=O)(=O)c4ccc(N[C@H](CCN5CCO[C@H](CO)C5)CSc5ccccc5)c(S(=O)(=O)C(F)(F)F)c4)cc3)CC2)=C(C23CC(C(F)F)(C2)C3)C1 [Example 102] | ≤ 100 |  |  | 
8 | CC1(C)CCC(CN2CCN(c3ccc(C(=O)NS(=O)(=O)c4ccc(N[C@H](CCN5CCO[C@@H](CO)C5)CSc5ccccc5)c(S(=O)(=O)C(F)(F)F)c4)cc3)CC2)=C(C23CC(C(F)F)(C2)C3)C1 [Example 103] | 100 to 1000 |  |  | 
9 | COC(=O)C1(C)CCN(CC[C@H](CSc2ccccc2)Nc2ccc(S(=O)(=O)NC(=O)c3ccc(N4CCN(CC5=C(C67CC(C(F)F)(C6)C7)CC(C)(C)CC5)CC4)cc3)cc2S(=O)(=O)C(F)(F)F)CC1 [Example 104, (R)-Methyl 1-(3-((4-(N-(4-(4-((2-(3-(difluoromethyl)bicyclo[1.1.1]pentan-1-yl)-4,4-dimethylcyclohex-1-en-1-yl)methyl)piperazin-1-yl)benzoyl)sulfamoyl)-2-((trifluoromethyl)sulfonyl)phenyl)amino)-4-(phenylthio)butyl)-4-methylpiperidine-4-carboxylate] | ≤ 100 | < 10 | < 10 | 
10 | CCOC1CCN(CC[C@H](CSc2ccccc2)Nc2ccc(S(=O)(=O)NC(=O)c3ccc(N4CCN(CC5=C(C67CC(C(F)F)(C6)C7)CC(C)(C)CC5)CC4)cc3)cc2S(=O)(=O)C(F)(F)F)CC1 [Example 105, (R)-4-(4-((2-(3-(difluoromethyl)bicyclo[1.1.1]pentan-1-yl)-4,4-dimethylcyclohex-1-en-1-yl)methyl)piperazin-1-yl)-N-((4-((4-(4-ethoxypiperidin-1-yl)-1-(phenylthio)butan-2-yl)amino)-((trifluoromethyl)sulfonyl)phenyl)sulfonyl)benzamide] | ≤ 100 |  |  | 
11 | CC(C)OC1CCN(CC[C@H](CSc2ccccc2)Nc2ccc(S(=O)(=O)NC(=O)c3ccc(N4CCN(CC5=C(C67CC(C(F)F)(C6)C7)CC(C)(C)CC5)CC4)cc3)cc2S(=O)(=O)C(F)(F)F)CC1 [Example 106] | 100 to 1000 |  |  | 
12 | CC(C)N1CCN(CC[C@H](CSc2ccccc2)Nc2ccc(S(=O)(=O)NC(=O)c3ccc(N4CCN(CC5=C(C67CC(C(F)F)(C6)C7)CC(C)(C)CC5)CC4)cc3)cc2S(=O)(=O)C(F)(F)F)CC1 [Example 107, (R)-4-(4-((2-(3-(difluoromethyl)bicyclo[1.1.1]pentan-1-yl)-4,4-dimethylcyclohex-1-en-1-yl)methyl)piperazin-1-yl)-N-((4-((4-(4-isopropylpiperazin-1-yl)-1-(phenylthio)butan-2-yl)amino)-3-((trifluoromethyl)sulfonyl)phenyl)sulfonyl)benzamide] | ≤ 100 |  |  | 
13 | CCC12CC(C3=C(CN4CCN(c5ccc(C(=O)NS(=O)(=O)c6ccc(N[C@H](CCN7CCC(OC)CC7)CSc7ccccc7)c(S(=O)(=O)C(F)(F)F)c6)cc5)CC4)CCC(C)(C)C3)(C1)C2 [Example 108, (R)-4-(4-((2-(3-ethylbicyclo[1.1.1]pentan-1-yl)-4,4-dimethylcyclohex-1-en-1-yl)methyl)piperazin-1-yl)-N-((4-((4-(4-methoxypiperidin-1-yl)-1-(phenylthio)butan-2-yl)amino)-3-((triluoromethyl)sulfonyl)phenyl)sulfonyl)benzamide] | ≤ 100 |  |  | 
